These are literature values, as cited in patent US7563896B2, “Process of obtaining type II dehydroquinase enzyme inhibitors and precursors thereof” (Universidade de Santiago de Compostela, priority 2003, dated 2009).

One data set addresses EPSP synthase. As to conditions: sixth enzyme of the shikimic acid pathway, read-out: inhibition constant.

Turning to `O=C(O)CNCP(=O)(O)O` [Glyphosphate], the effectiveness against malaria result in the data set on malaria is “effective”. For the same compound, the Ki at EPSP synthase is around 1 µM.
